{
  "source": "patent US20140378374A1",
  "about": "“METHODS OF TREATMENT” (GlaxoSmithKline Intellectual Property (No.2) Limited, priority 2013, published 2014)",
  "key": {"[1]": {"details": "each group with CKD (mild, moderate, severe); cited from earlier work"}, "[2]": {"tested_on": "patients with type 2 diabetes", "details": "head-to-head trial; cited from earlier work"}, "patients with T2D and RI": {"tested_on": "patients with T2D and RI", "assay_type": "in vivo, human", "details": "for Model-adjusted change from baseline A1C, LS mean (SE): ANCOVA", "protocol": "Therapies for type 2 diabetes mellitus (T2DM) with renal impairment (RI) are limited and may require dose adjustment. This 52-week randomized, double blind, active controlled, Phase III parallel group study examined efficacy/safety of QW Albi injections (30 mg uptitrated to 50 mg if needed) vs daily Sita in patients with T2D and RI (eGFR≧15 and <90 mL/min/1.73 m^2) and A1C 7-10% on lifestyle (11% of subjects) or metformin (Met), thiazoldinedone (TZD), sulfonylureas (SU), or any combination (89% of patients). […] Primary endpoint was A1C change at week 26 for Albi vs Sita (noninferiority with subsequent superiority analysis). Eligible subjects were men or non pregnant, nonlactating women, 18 years of age or older, with a historical diagnosis of T2DM who were experiencing inadequate glycemic control on their current regimen of diet and exercise or their antidiabetic therapy of metformin, TZD, SU, or any combination of these OAD medications."}, "[3]": {"details": "Week 26, Moderate RI (eGFR 30-59)"}, "[4]": {"details": "Week 26, Severe RI (eGFR 15-29)"}},
  "note": "Read-outs that look alike come from different tables or passages of the source.",
  "data": [
    {"smiles": "CCCCCCCCCCCCCCCC(=O)N[C@@H](CCC(=O)NCCCC[C@H](NC(=O)[C@H](C)NC(=O)[C@H](C)NC(=O)[C@H](CCC(N)=O)NC(=O)CNC(=O)[C@H](CCC(=O)O)NC(=O)[C@H](CC(C)C)NC(=O)[C@H](Cc1ccc(O)cc1)NC(=O)[C@H](CO)NC(=O)[C@H](CO)NC(=O)[C@@H](NC(=O)[C@H](CC(=O)O)NC(=O)[C@H](CO)NC(=O)[C@@H](NC(=O)[C@H](Cc1ccccc1)NC(=O)[C@@H](NC(=O)CNC(=O)[C@H](CCC(=O)O)NC(=O)[C@H](C)NC(=O)[C@@H](N)Cc1cnc[nH]1)[C@@H](C)O)[C@@H](C)O)C(C)C)C(=O)N[C@@H](CCC(=O)O)C(=O)N[C@@H](Cc1ccccc1)C(=O)N[C@H](C(=O)N[C@@H](C)C(=O)N[C@@H](Cc1c[nH]c2ccccc12)C(=O)N[C@@H](CC(C)C)C(=O)N[C@H](C(=O)N[C@@H](CCCNC(=N)N)C(=O)NCC(=O)N[C@@H](CCCNC(=N)N)C(=O)NCC(=O)O)C(C)C)[C@@H](C)CC)C(=O)O", "note": "[liraglutide, reference compound]", "values": [
      {"measurement": "exposure vs group with normal renal function", "setting": "[1]", "value": "reduced exposure"},
      {"measurement": "nausea, percentage", "setting": "[2]", "value": 29, "unit": "%"},
      {"measurement": "vomiting, percentage", "setting": "[2]", "value": 9, "unit": "%"}
    ]},
    {"smiles": "N[C@@H](CC(=O)N1CCn2c(nnc2C(F)(F)F)C1)Cc1cc(F)c(F)cc1F", "note": "[Sitagliptin, sitagliptin, reference compound]", "values": [
      {"measurement": "Week 26 A1C, mean", "setting": "patients with T2D and RI; Any RI (eGFR 15-89)", "value": 7.68, "unit": "%"},
      {"measurement": "Week 26 A1C, mean", "setting": "patients with T2D and RI; Mild RI (eGFR 60-89 mL/min/1.73 m2)", "value": 7.50, "unit": "%"},
      {"measurement": "Week 26 A1C, mean", "setting": "patients with T2D and RI; Moderate RI (eGFR 30-59)", "value": 7.91, "unit": "%"},
      {"measurement": "Week 26 A1C, mean", "setting": "patients with T2D and RI; Severe RI (eGFR 15-29)", "value": 7.67, "unit": "%"},
      {"measurement": "A1C<7% achieved, patients", "setting": "patients with T2D and RI; Week 26", "value": 30.5, "unit": "%"},
      {"measurement": "FPG change", "setting": "patients with T2D and RI; Week 26", "value": -3.9, "unit": "mg/dL"},
      {"measurement": "weight change", "setting": "patients with T2D and RI; Week 26", "value": -0.2, "unit": "kg"},
      {"measurement": "Model-adjusted change from baseline A1C, LS mean (SE)", "setting": "patients with T2D and RI; Week 26, Any RI (eGFR 15-89)", "value": "−0.52", "unit": "%"},
      {"measurement": "Model-adjusted change from baseline A1C, LS mean (SE)", "setting": "patients with T2D and RI; Week 26, Mild RI (eGFR 60-89)", "value": "−0.67", "unit": "%"},
      {"measurement": "Model-adjusted change from baseline A1C, LS mean (SE)", "setting": "patients with T2D and RI; [3]", "value": "−0.31", "unit": "%"},
      {"measurement": "Model-adjusted change from baseline A1C, LS mean (SE)", "setting": "patients with T2D and RI; [4]", "value": "−0.61", "unit": "%"},
      {"measurement": "Change from baseline A1C, mean (SD)", "setting": "patients with T2D and RI; Week 26, Any RI (eGFR 15-89)", "value": "−0.54", "unit": "%"},
      {"measurement": "Change from baseline A1C, mean (SD)", "setting": "patients with T2D and RI; Week 26, Mild RI (eGFR 60-89)", "value": "−0.66", "unit": "%"},
      {"measurement": "Change from baseline A1C, mean (SD)", "setting": "patients with T2D and RI; [3]", "value": "−0.37", "unit": "%"},
      {"measurement": "Change from baseline A1C, mean (SD)", "setting": "patients with T2D and RI; [4]", "value": "−0.65", "unit": "%"},
      {"measurement": "Adverse Event rate: diarrhea", "setting": "patients with T2D and RI; both, human, in vivo, 26 weeks", "value": 6.1, "unit": "%"},
      {"measurement": "Adverse Event rate: nausea", "setting": "patients with T2D and RI; both, human, in vivo, 26 weeks", "value": 2.8, "unit": "%"},
      {"measurement": "Adverse Event rate: vomiting", "setting": "patients with T2D and RI; both, human, in vivo, 26 weeks", "value": 0.8, "unit": "%"},
      {"measurement": "Hypoglycemia rate", "setting": "patients with T2D and RI; both, human, in vivo, 26 weeks", "value": 13.4, "unit": "%"},
      {"measurement": "Hypoglycemia, severe (number)", "setting": "patients with T2D and RI; both, human, in vivo, 26 weeks", "value": 2},
      {"measurement": "Injection site reaction rate", "setting": "patients with T2D and RI; both, human, in vivo, 26 weeks", "value": 2.8, "unit": "%"},
      {"measurement": "On-therapy adverse event: Constipation", "setting": "patients with T2D and RI; both, human, in vivo, 26 weeks", "value": "5 (2.0) n (%)"},
      {"measurement": "On-therapy adverse event: Diarrhea", "setting": "patients with T2D and RI; both, human, in vivo, 26 weeks", "value": "15 (6.1) n (%)"},
      {"measurement": "On-therapy adverse event: Hypertension", "setting": "patients with T2D and RI; both, human, in vivo, 26 weeks", "value": "15 (6.1) n (%)"},
      {"measurement": "On-therapy adverse event: Nasopharyngitis", "setting": "patients with T2D and RI; both, human, in vivo, 26 weeks", "value": "16 (6.5) n (%)"},
      {"measurement": "On-therapy adverse event: Upper respiratory tract infection", "setting": "patients with T2D and RI; both, human, in vivo, 26 weeks", "value": "16 (6.5) n (%)"},
      {"measurement": "On-therapy adverse event: Urinary tract infection", "setting": "patients with T2D and RI; both, human, in vivo, 26 weeks", "value": "15 (6.1) n (%)"}
    ]}
  ]
}
